Data taken from publication PMC6630910 (Pharmaceuticals, 2019).

How the values were obtained:
[1] = biological target: P-I type metalloproteinase Batx-I (Bothrops atrox, UniProt P0DJE1); test: biochemical
[2] = system: PLA2 from snake venoms; conditions: same methodology as this paper; read-out: IC50 (PLA2 inhibition); cited from earlier work

Sequence of P-I type metalloproteinase Batx-I (P0DJE1 whole entry, looked up): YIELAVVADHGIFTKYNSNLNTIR

SMILES	activity at 2000 µM ([1]; read-out: Batx-I proteolytic activity still observed) [%]	melting point [°C]	IC50 [1] [µM]	IC50 [2] [µM]
CCOC(=O)CSC(=O)c1ccc(Cl)cc1 [Compound I, Ethyl 2-((4-chlorobenzoyl)thio)acetate]	70	55.6		
CCOC(=O)CSC(=O)c1cccc([N+](=O)[O-])c1 [II, Ethyl 2-((3-nitrobenzoyl)thio)acetate]		44.5	2770	
CCOC(=O)CSC(=O)c1ccc([N+](=O)[O-])cc1 [III, Ethyl 2-((4-nitrobenzoyl)thio)acetate]		56.2	1880	
O=C1c2c(O)cc(O)cc2O[C@H](c2ccc(O)cc2)[C@H]1c1c(O)cc(O)c2c(=O)cc(-c3ccc(O)c(O)c3)oc12 [Morelloflavone]				380
COc1cc(O)c2c(c1)O[C@H](c1ccccc1)CC2=O [Pinostrobin]				1850
